Data: patent publication US10316017B2, “COT modulators and methods of use thereof” (Gilead Sciences, Inc., priority 2015, dated 2019)

What was measured:
[1] = target: T1, human Cot catalytic domain (30-397 amino acids) (Homo sapiens, UniProt P41279); assay: High Throughput Cot Biochemical Assay (KinEASE TR-FRET); conditions: Cot KinEASE TR-FRET, 400 μM ATP; read-out: IC50 HTRF
T1 construct: Purified recombinant human Cot catalytic domain (30-397 amino acids) was purchased from Cama Biosciences; purchased Cama Biosciences (so in the source)
In short: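 TR-FRET readout: Eu-labeled phospho-specific antibody binds XL665-tagged STK3 peptide after phosphorylation by Cot (aa 30-397, 5 nM). Conditions: 400 μM ATP, 1 μM peptide, MOPS pH 7.0 buffer with MgOAc, DTT, BSA, NP-40, glycerol; 0.1% DMSO.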

[2] = test system: TNFα production in LPS-stimulated human monocytes; assay: Cot Monocyte TNFα Cell Based Assay; conditions: Homo sapiens, Monocyte, LPS-stimulated human monocytes, TNFα TR-FRET; read-out: EC50 TNF
In short: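 TR-FRET read-out of total secreted TNFα, normalized as % control (unstimulated = 0%, LPS-stimulated = 100%). Cells (5,000/well) were exposed to compound 1 h at 37 °C, then to 50 pg/ml LPS for a further 4 h.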

T1 sequence (P41279 30-397): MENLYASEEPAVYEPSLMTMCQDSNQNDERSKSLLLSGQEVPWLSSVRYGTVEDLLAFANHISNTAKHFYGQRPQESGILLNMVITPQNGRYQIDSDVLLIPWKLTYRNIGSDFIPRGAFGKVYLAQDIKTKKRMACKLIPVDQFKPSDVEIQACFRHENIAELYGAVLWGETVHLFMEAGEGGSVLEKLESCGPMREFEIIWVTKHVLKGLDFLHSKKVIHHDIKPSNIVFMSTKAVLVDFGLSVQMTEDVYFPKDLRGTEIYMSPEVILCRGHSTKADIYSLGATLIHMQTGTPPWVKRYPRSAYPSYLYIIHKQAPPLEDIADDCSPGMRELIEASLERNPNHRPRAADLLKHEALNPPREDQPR

SMILES	IC50 [1]	EC50 [2]
Cc1ccccc1[C@H](Nc1cc(Cl)c2ncc(C#N)c(NCC(C)(C)C)c2c1)c1cn(C2(C(F)F)CC2)nn1 [Example 1060, (S)-8-chloro-6-(((1-(1-(difluoromethyl)cyclopropyl)-1H-1,2,3-triazol-4-yl)(o-tolyl)methyl)amino)-4-(neopentylamino)quinoline-3-carbonitrile]	33 nM	311 nM
Cc1ccccc1[C@H](Nc1cc(Cl)c2ncc(C#N)c(NCC(C)(C)C)c2c1)c1cn(C2(C(F)(F)F)CC2)nn1 [Example 1061, (S)-8-chloro-4-(neopentylamino)-6-((o-tolyl(1-(1-(trifluoromethyl)cyclopropyl)-1H-1,2,3-triazol-4-yl)methyl)amino)quinoline-3-carbonitrile]	85 nM	620 nM
CC(C)(C)CNc1c(C#N)cnc2c(C#N)cc(N[C@@H](c3ccccc3)c3cn(C4(C(F)F)CC4)nn3)cc12 [Example 1064, (S)-6-(((1-(1-(difluoromethyl)cyclopropyl)-1H-1,2,3-triazol-4-yl)(phenyl)methyl)amino)-4-(neopentylamino)quinoline-3,8-dicarbonitrile]	12 nM	103 nM
CC(C)(C)CNc1c(C#N)cnc2c(C#N)cc(N[C@@H](c3ccccc3)c3cn(C4(C(F)(F)F)CC4)nn3)cc12 [Example 1065, (S)-4-(neopentylamino)-6-((phenyl(1-(1-(trifluoromethyl)cyclopropyl)-1H-1,2,3-triazol-4-yl)methyl)amino)quinoline-3,8-dicarbonitrile]	22 nM	237 nM
Cc1ccccc1[C@H](Nc1cc(C#N)c2ncc(C#N)c(NCC(C)(C)C)c2c1)c1cn(C2(C(F)F)CC2)nn1 [Example 1066, (S)-6-(((1-(1-(difluoromethyl)cyclopropyl)-1H-1,2,3-triazol-4-yl)(o-tolyl)methyl)amino)-4-(neopentylamino)quinoline-3,8-dicarbonitrile]	10 nM	85 nM
Cc1ccccc1[C@H](Nc1cc(C#N)c2ncc(C#N)c(NCC(C)(C)C)c2c1)c1cn(C2(C(F)(F)F)CC2)nn1 [Example 1067, (S)-4-(neopentylamino)-6-((o-tolyl(1-(1-(trifluoromethyl)cyclopropyl)-1H-1,2,3-triazol-4-yl)methyl)amino)quinoline-3,8-dicarbonitrile]	17 nM	213 nM
CC(C)(C)CNc1c(C#N)cnc2c(Cl)cc(N[C@H](c3cn(C4(C(F)(F)F)CC4)nn3)c3cccc(C#N)c3Cl)cc12 [Example 1074, (S)-8-chloro-6-(((2-chloro-3-cyanophenyl)(1-(1-(trifluoromethyl)cyclopropyl)-1H-1,2,3-triazol-4-yl)methyl)amino)-4-(neopentylamino)quinoline-3-carbonitrile]	48 nM	435 nM
CC(C)(C)CNc1c(C#N)cnc2c(Cl)cc(N[C@H](c3cn(C4(C(F)F)CC4)nn3)c3cccc(C#N)c3Cl)cc12 [Example 1075, (S)-8-chloro-6-(((2-chloro-3-cyanophenyl)(1-(1-(difluoromethyl)cyclopropyl)-1H-1,2,3-triazol-4-yl)methyl)amino)-4-(neopentylamino)quinoline-3-carbonitrile]	23 nM	185 nM
Cc1cc(F)ccc1[C@H](Nc1cc(Cl)c2ncc(C#N)c(NCC(C)(C)C)c2c1)c1cn(C2(C(F)F)CC2)nn1 [Example 1076, (S)-8-chloro-6-(((1-(1-(difluoromethyl)cyclopropyl)-1H-1,2,3-triazol-4-yl)(4-fluoro-2-methylphenyl)methyl)amino)-4-(neopentylamino)quinoline-3-carbonitrile]	37 nM	182 nM
[2H][C@](Nc1cc(C#N)c2ncc(C#N)c(NCC(C)(C)C)c2c1)(c1ccc(F)cc1)c1cn(Cc2c(F)cccc2F)nn1 [Example 1078, (S)-6-(((1-(2,6-difluorobenzyl)-1H-1,2,3-triazol-4-yl)(4-fluorophenyl)methyl-d)amino)-4-(neopentylamino)quinoline-3,8-dicarbonitrile]	12 nM	175 nM
CC(C)(C)CNc1c(C#N)cnc2c(C#N)cc(N[C@H](c3cn(C4(C(F)(F)F)CC4)nn3)c3cccc(C#N)c3Cl)cc12 [Example 1079, (S)-6-(((2-chloro-3-cyanophenyl)(1-(1-(trifluoromethyl)cyclopropyl)-1H-1,2,3-triazol-4-yl)methyl)amino)-4-(neopentylamino)quinoline-3,8-dicarbonitrile]	19 nM	220 nM
CC(C)(C)CNc1c(C#N)cnc2c(C#N)cc(N[C@H](c3cn(C4(C(F)F)CC4)nn3)c3cccc(C#N)c3Cl)cc12 [Example 1080, (S)-6-(((2-chloro-3-cyanophenyl)(1-(1-(difluoromethyl)cyclopropyl)-1H-1,2,3-triazol-4-yl)methyl)amino)-4-(neopentylamino)quinoline-3,8-dicarbonitrile]	7 nM	148 nM

The next compounds have a lower IC50 [1] than those just listed; values first:

IC50 [1]	EC50 [2]	SMILES
3 nM	70 nM	Cc1c([C@H](Nc2cc(Cl)c3ncc(C#N)c(NCC(C)(C)C)c3c2)c2cn(C3(C(F)F)CC3)nn2)cccc1-n1cnnn1 [Example 1062, (S)-8-chloro-6-(((1-(1-(difluoromethyl)cyclopropyl)-1H-1,2,3-triazol-4-yl)(2-methyl-3-(1H-tetrazol-1 yl)phenyl)methyl)amino)-4-(neopentylamino)quinoline-3-carbonitrile]
6 nM	73 nM	Cc1c([C@H](Nc2cc(Cl)c3ncc(C#N)c(NCC(C)(C)C)c3c2)c2cn(C3(C(F)(F)F)CC3)nn2)cccc1-n1ccnn1 [Example 1063, (S)-8-chloro-6-(((2-methyl-3-(1H-1,2,3-triazol-1-yl)phenyl)(1-(1-(trifluoromethyl)cyclopropyl)-1H-1,2,3-triazol-4-yl)methyl)amino)-4-(neopentylamino)quinoline-3-carbonitrile]
3 nM	58 nM	Cc1c([C@H](Nc2cc(C#N)c3ncc(C#N)c(NCC(C)(C)C)c3c2)c2cn(C3(C(F)(F)F)CC3)nn2)cccc1-n1ccnn1 [Example 1068, (S)-6-(((2-methyl-3-(1H-1,2,3-triazol-1-yl)phenyl)(1-(1-(trifluoromethyl)cyclopropyl)-1H-1,2,3-triazol-4-yl)methyl)amino)-4-(neopentylamino)quinoline-3,8-dicarbonitrile]
2 nM	54 nM	Cc1c([C@H](Nc2cc(Cl)c3ncc(C#N)c(NCC(C)(C)C)c3c2)c2cn(C3(C(F)F)CC3)nn2)cccc1-n1ccnc1 [Example 1069, (S)-6-(((3-(1H-imidazol-1-yl)-2-methylphenyl)(1-(1-(difluoromethyl)cyclopropyl)-1H-1,2,3-triazol-4-yl)methyl)amino)-8-chloro-4-(neopentylamino)quinoline-3-carbonitrile]
2 nM	272 nM	Cc1c([C@H](Nc2cc(Cl)c3ncc(C#N)c(NCC(C)(C)C)c3c2)c2cn(C3(C(F)F)CC3)nn2)cccc1-n1cnnc1 [Example 1070, (S)-8-chloro-6-(((1-(1-(difluoromethyl)cyclopropyl)-1H-1,2,3-triazol-4-yl)(2-methyl-3-(4H-1,2,4-triazol-4-yl)phenyl)methyl)amino)-4-(neopentylamino)quinoline-3-carbonitrile]
3 nM	215 nM	Cc1c([C@H](Nc2cc(Cl)c3ncc(C#N)c(NCC(C)(C)C)c3c2)c2cn(C3(C(F)(F)F)CC3)nn2)cccc1-n1cnnc1 [Example 1071, (S)-8-chloro-6-(((2-methyl-3-(4H-1,2,4-triazol-4-yl)phenyl)(1-(1-(trifluoromethyl)cyclopropyl)-1H-1,2,3-triazol-4-yl)methyl)amino)-4-(neopentylamino)quinoline-3-carbonitrile]
3 nM	≥ 1000 nM	Cc1c([C@H](Nc2cc(C#N)c3ncc(C#N)c(NCC(C)(C)C)c3c2)c2cn(C3(C(F)(F)F)CC3)nn2)cccc1-n1cnnc1 [Example 1072, (S)-6-(((2-methyl-3-(4H-1,2,4-triazol-4-yl)phenyl)(1-(1-(trifluoromethyl)cyclopropyl)-1H-1,2,3-triazol-4-yl)methyl)amino)-4-(neopentylamino)quinoline-3,8-dicarbonitrile]
1 nM	≥ 1000 nM	Cc1c([C@H](Nc2cc(C#N)c3ncc(C#N)c(NCC(C)(C)C)c3c2)c2cn(C3(C(F)F)CC3)nn2)cccc1-n1cnnc1 [Example 1073, (S)-6-(((1-(1-(difluoromethyl)cyclopropyl)-1H-1,2,3-triazol-4-yl)(2-methyl-3-(4H-1,2,4-triazol-4-yl)phenyl)methyl)amino)-4-(neopentylamino)quinoline-3,8-dicarbonitrile]
2 nM	77 nM	Cc1c([C@H](Nc2cc(C#N)c3ncc(C#N)c(NCC(C)(C)C)c3c2)c2cn(C3(C(F)F)CC3)nn2)cccc1-n1ccnc1 [Example 1077]
3 nM	219 nM	Cc1c([C@H](Nc2cc(C#N)c3ncc(C#N)c(NCC(C)(C)C)c3c2)c2cn(C3(C(F)(F)F)CC3)nn2)cccc1-n1cnnn1 [Example 1081, (S)-6-(((2-methyl-3-(1H-tetrazol-1-yl)phenyl)(1-(1-(trifluoromethyl)cyclopropyl)-1H-1,2,3-triazol-4-yl)methyl)amino)-4-(neopentylamino)quinoline-3,8-dicarbonitrile]
